{"source": "patent US10265286B2", "about": "“Sequelae of cardiopulmonary bypass-induced pulmonary injury” (Vanderbilt University, priority 2016, dated 2019)", "type_in_all_cases": "in vivo, human", "key": {"[1]": {"experiment": "Phase IB study: composite of invasive mechanical ventilation or inotrope use", "from_the_text": "The cessation of positive pressure ventilation and of inotrope therapy are the two principal determinants of readiness for discharge from the intensive care unit. They were combined as a composite variable to serve as an additional effective surrogate endpoint for the duration of ICU stay.\nThe composite endpoint comprised the longer of the duration of positive pressure ventilatory support or of inotrope therapy. Since inotrope use was only documented until Hour 48 after surgery (end of study medication treatment), patients with inotrope use continuing until Hour 48 and with mechanical ventilation duration of ≤48 h were censored at this time point. If mechanical ventilation was continued beyond the 48-hour time point, the duration of mechanical ventilation was used in the analysis."}, "[2]": {"experiment": "Phase IB study: vasoactive medications", "procedure": "The total number of hours on vasoactive medications, including nitroglycerin, nitroprusside and vasopressin, was calculated from the end of surgery until the discontinuation of vasoactive medications or end of study medication (Hour 48), whichever occurred first. Table 14 compares the length of time on vasoactive medications for the citrulline and placebo treatment groups. The overall duration of concomitant vasoactive treatment was shorter in citrulline—than placebo-treated patients, but the difference was not statistically significant. Similar results are shown for the total vasoactive score. However, the patient receiving citrulline did, in fact, show a shorter total duration of vasoactive medication as shown in FIG. 30."}, "[3]": {"experiment": "Phase IB study: total respiratory support", "conditions": "invasive and non-invasive", "from_the_text": "The analysis of total respiratory support includes any invasive and non-invasive respiratory support required during the study period. The mean total duration of respiratory support in the citrulline treatment group was less than half the duration in the placebo treatment group; the difference was statistically significant (Table 11)."}, "[4]": {"experiment": "Revised dosing protocol study: duration of respiratory support and cardiovascular parameters (Example 8)", "from_the_text": "The study in this example was undertaken to test a revised dosing protocol designed to achieve and maintain therapeutic citrulline levels in the face of ultrafiltration and crystalloid replacement. […] The study recruited 22 patients randomized in equal numbers of 11 patients each to placebo and citrulline arms.\nEarly in the course of the study, it was recognized that one of the two participating centers routinely extubated all patients in the operating room immediately following cessation of cardiopulmonary bypass. This precluded use of the duration of mechanical ventilation as an endpoint. Instead, a post-hoc analysis was applied using the duration of all forms of ventilatory support as a possible endpoint. […] In contrast, contingency table analysis, shown in FIG. 16, did achieve borderline significance. Overall, the results are considered to represent a strong trend."}, "[5]": {"experiment": "Perioperative oral citrulline supplementation in children undergoing congenital cardiac surgery", "procedure": "Initial supplementation trials utilized oral citrulline at a dose of 1.9 g/kg before cardiopulmonary bypass, immediately postoperatively and every 12 hours, continuing for 48 hours after surgery.\n40 patients with one of the 5 surgical diagnoses identified above were randomized to receive 5 doses of oral citrulline (1.9 grams/kg) vs. placebo. The first dose was administered immediately prior to surgery and the second dose immediately on arrival in the Pediatric ICU after surgery followed every 12 hours×3 doses."}, "[6]": {"experiment": "Phase IB study: duration of ICU stay", "procedure": "Duration of ICU stay was analyzed once as the total number of postoperative hours spent in the ICU and once as the total number of postoperative hours that a patient required postoperative mechanical ventilator or continuous intravenous inotrope or vasodilator support. The latter combination of parameters represents another surrogate endpoint for ICU stay."}, "[7]": {"experiment": "Phase IB study: duration of hospitalization", "conditions": "postoperative until discharge", "procedure": "Duration of hospitalization was calculated as the total number of days postoperative until discharge from the hospital. The average duration of hospitalization was lower in the citrulline than the placebo treatment group, however, the difference was not statistically significant (Table 17)."}, "[8]": {"experiment": "Intravenous citrulline dose escalation pharmacokinetics in children undergoing congenital cardiac surgery", "procedure": "The initial goal was to test the safety and pharmacokinetics of three doses of intravenous citrulline in children undergoing surgical repair of specific congenital heart defects. […] An adverse drop in mean arterial pressure was defined as a greater than a twenty percent decrease from baseline. The baseline postoperative mean arterial blood pressure was calculated as the average of mean arterial blood pressure measurements collected every 5 minutes for the 30 minutes immediately preceding the administration of the postoperative dose or infusion.\nThe original doses selected were 200, 400, and 600 mg/kg based on data from previous animal studies. The original study design was a 4 arm study using the 3 doses and a placebo control.\nAfter pharmacokinetic modeling, the study design was changed to a bolus dose of 150 mg/kg given in the OR on cardiopulmonary bypass followed 4 hours later by a continuous infusion of 9 mg/kg/hour for 48 hours. Another 9 patients were enrolled. The mean plasma levels of both citrulline and arginine in study patients (+IV citrulline) compared to patients in the observational cohort (−IV citrulline) are depicted in FIGS. 11A-B.\nThe dose of citrulline was given in the operating room immediately after cannulation and initiation of cardiopulmonary bypass. The overall goal was to achieve a sustained citrulline level of 100 μmol/L or more up to four hours after the initial dose. The four hour time point was selected to allow for the surgical procedure to be completed and the patient to return to the Intensive Care Unit (ICU) postoperatively before further dosing."}, "[9]": {"conditions": "end of surgery until discontinuation or Hour 48"}, "[10]": {"conditions": "total postoperative hours in ICU"}}, "note": "Read-outs that look alike come from different tables or passages of the source.", "data": [{"compound": "NC(=O)NCCCC(N)C(=O)O", "note": "(stereo not drawn) [Citrulline, 2-amino-5-(carbamoylamino)pentanoic acid]", "values": [{"measurement": "Composite duration of invasive mechanical ventilation or inotrope use, Diff (CI) placebo vs citrulline", "setting": "[1]; Re-intubation time excluded", "value": "17.7 (−1.0, 36.4) hours"}, {"measurement": "Composite duration of invasive mechanical ventilation or inotrope use, Mean ± SD", "setting": "[1]; Re-intubation time excluded", "value": "14.3 ± 14.06", "unit": "h"}, {"measurement": "Composite duration of invasive mechanical ventilation or inotrope use, Median", "setting": "[1]; Re-intubation time excluded", "value": 15.0, "unit": "h"}, {"measurement": "Composite duration of invasive mechanical ventilation or inotrope use, Range", "setting": "[1]; Re-intubation time excluded", "value": "0.0 to 47.0", "unit": "h"}, {"measurement": "Composite duration of invasive mechanical ventilation or inotrope use, Diff (CI) placebo vs citrulline", "setting": "[1]; Re-intubation time included", "value": "30.2 (−10.8, 71.1) hours"}, {"measurement": "Composite duration of invasive mechanical ventilation or inotrope use, Mean ± SD", "setting": "[1]; Re-intubation time included", "value": "14.3 ± 14.06", "unit": "h"}, {"measurement": "Composite duration of invasive mechanical ventilation or inotrope use, Median", "setting": "[1]; Re-intubation time included", "value": 15.0, "unit": "h"}, {"measurement": "Composite duration of invasive mechanical ventilation or inotrope use, Range", "setting": "[1]; Re-intubation time included", "value": "0.0 to 47.0", "unit": "h"}, {"measurement": "Total vasoactive score, Mean ± SD", "setting": "[2]; N = 11", "value": "5.5 ± 10.62"}, {"measurement": "Length of time on vasoactive medications, Diff (CI) placebo vs citrulline", "setting": "[2]; [9]", "value": "3.5 (−7.0, 14.1) hours"}, {"measurement": "Length of time on vasoactive medications, Median", "setting": "[2]; [9]", "value": 1.0, "unit": "h"}, {"measurement": "Length of time on vasoactive medications, Range", "setting": "[2]; [9]", "value": "0.0 to 17.0", "unit": "h"}, {"measurement": "Length of time on vasoactive medications, Mean ± SD", "setting": "[2]; end of surgery until discontinuation or Hour 48, N = 11", "value": "6.3 ± 7.18", "unit": "h"}, {"measurement": "Total vasoactive score, Diff (CI) placebo vs citrulline", "setting": "[2]; in vivo", "value": "5.2 (−7.7, 18.0)"}, {"measurement": "Total vasoactive score, Median", "setting": "[2]; in vivo", "value": 1.1}, {"measurement": "Total vasoactive score, Range", "setting": "[2]; in vivo", "value": "0.0-35.5"}, {"measurement": "Total duration of respiratory support, Diff (CI) placebo vs citrulline", "setting": "[3]", "value": "50.7 (5.4, 96.0) hours"}, {"measurement": "Total duration of respiratory support, Median", "setting": "[3]", "value": 23.6, "unit": "h"}, {"measurement": "Total duration of respiratory support, Range", "setting": "[3]", "value": "0.0 to 100.1", "unit": "h"}, {"measurement": "Total duration of respiratory support, Mean ± SD", "setting": "[3]; N = 11", "value": "31.2 ± 28.27", "unit": "h"}, {"measurement": "systolic and diastolic blood pressure versus placebo", "setting": "[4]; FIG. 18A", "value": "No significant change in systolic and diastolic blood pressure"}, {"measurement": "mean arterial pressure versus placebo", "setting": "[4]; FIG. 18B", "value": "No significant change in the mean arterial pressure"}, {"measurement": "patients with Duration of Respiratory Support ≤50 hours", "setting": "[4]; contingency table, placebo 3", "value": 7}, {"measurement": "patients with Duration of Respiratory Support >50 hours", "setting": "[4]; contingency table, placebo 8", "value": 2}, {"measurement": "inotrope scores versus placebo", "setting": "[4]; particularly from 15 to 18 hours onward following ICU admission (FIG. 17)", "value": "markedly better inotrope scores"}, {"measurement": "adverse effects upon hemodynamic parameters", "setting": "[4]; revised dosing protocol", "value": "No adverse effects upon hemodynamic parameters were observed"}, {"measurement": "Plasma citrulline levels", "setting": "[5]; 5 doses of oral citrulline 1.9 grams/kg, placebo 26", "value": 36, "unit": "µmol/L"}, {"measurement": "tolerability", "setting": "[5]; oral 1.9 g/kg before CPB, postoperatively and every 12 hours for 48 hours", "value": "well tolerated with no evidence of significant adverse events"}, {"measurement": "Longest duration of mechanical ventilation, i.v. inotrope use, or vasodilator use, Diff (CI) placebo vs citrulline", "setting": "[6]; re-intubation excluded", "value": "17.5 (−1.2, 36.2) hours"}, {"measurement": "Longest duration of mechanical ventilation, i.v. inotrope use, or vasodilator use, Mean ± SD", "setting": "[6]; re-intubation excluded", "value": "14.5 ± 13.99", "unit": "h"}, {"measurement": "Longest duration of mechanical ventilation, i.v. inotrope use, or vasodilator use, Median", "setting": "[6]; re-intubation excluded", "value": 15.0, "unit": "h"}, {"measurement": "Longest duration of mechanical ventilation, i.v. inotrope use, or vasodilator use, Range", "setting": "[6]; re-intubation excluded", "value": "0.0 to 47.0", "unit": "h"}, {"measurement": "Longest duration of mechanical ventilation, i.v. inotrope use, or vasodilator use, Diff (CI) placebo vs citrulline", "setting": "[6]; re-intubation included", "value": "29.9 (−11.0, 70.9) hours"}, {"measurement": "Longest duration of mechanical ventilation, i.v. inotrope use, or vasodilator use, Mean ± SD", "setting": "[6]; re-intubation included", "value": "14.5 ± 13.99", "unit": "h"}, {"measurement": "Longest duration of mechanical ventilation, i.v. inotrope use, or vasodilator use, Median", "setting": "[6]; re-intubation included", "value": 15.0, "unit": "h"}, {"measurement": "Longest duration of mechanical ventilation, i.v. inotrope use, or vasodilator use, Range", "setting": "[6]; re-intubation included", "value": "0.0 to 47.0", "unit": "h"}, {"measurement": "Duration of PICU stay, Diff (CI) placebo vs citrulline", "setting": "[6]; [10]", "value": "69.14 (−49.39, 187.67) hours"}, {"measurement": "Duration of PICU stay, Median", "setting": "[6]; [10]", "value": 28.52, "unit": "h"}, {"measurement": "Duration of PICU stay, Range", "setting": "[6]; [10]", "value": "20.8 to 72.0", "unit": "h"}, {"measurement": "Duration of PICU stay, Mean ± SD", "setting": "[6]; total postoperative hours in ICU, N = 11", "value": "35.94 ± 16.150", "unit": "h"}, {"measurement": "Duration of hospitalization, Diff (CI) placebo vs citrulline", "setting": "[7]", "value": "3.7 (−2.2, 9.7) days"}, {"measurement": "Duration of hospitalization, Median", "setting": "[7]", "value": 5.0, "unit": "days"}, {"measurement": "Duration of hospitalization, Range", "setting": "[7]", "value": "3.0 to 7.0", "unit": "days"}, {"measurement": "Duration of hospitalization, Mean ± SD", "setting": "[7]; N = 11", "value": "4.6 ± 1.21", "unit": "days"}, {"measurement": "peak citrulline level", "setting": "[8]; 50 mg/kg IV, Patients 6 and 8", "value": "approximately 220 μmol/L"}, {"measurement": "peak citrulline level", "setting": "[8]; 100 mg/kg IV, Patients 9 & 10", "value": 375, "unit": "µmol/L"}, {"measurement": "four hour levels", "setting": "[8]; 150 mg/kg IV bolus", "value": 100, "unit": "µmol/L"}, {"measurement": "peak citrulline level", "setting": "[8]; 150 mg/kg IV, Patient 13-16", "value": 660, "unit": "µmol/L"}, {"measurement": "plasma levels achieved", "setting": "[8]; IV doses 200, 400, and 600 mg/kg", "value": "very high"}, {"measurement": "sustained citrulline level suggested by pharmacokinetic modeling", "setting": "[8]; bolus 150 mg/kg then 4 hours later continuous infusion 9 mg/kg/hr", "value": "approximately 100 μmol/L"}, {"measurement": "half-life", "setting": "[8]; human, plasma, iv, IV bolus doses in children on CPB", "value": "~1.42", "unit": "h"}, {"measurement": "concentration at 4 hour", "setting": "[8]; human, plasma, 50 mg/kg IV, Patients 6 and 8, read-out: 4 hour trough level", "value": 40, "unit": "µM"}, {"measurement": "concentration at 4 hour", "setting": "[8]; human, plasma, 100 mg/kg IV, Patients 9 & 10, read-out: 4 hour trough", "value": 50, "unit": "µM"}, {"measurement": "concentration at 4 hour", "setting": "[8]; human, plasma, 150 mg/kg IV, Patient 13-16, read-out: 4 hour trough", "value": 80, "unit": "µM"}]}]}
